Assay results as given in EPA's ToxRefDB 2.

Assays:
rat [1] = conditions: Combined chronic toxicity/carcinogenicity, fischer, Oral, Gavage/Intubation, dose end: 103 week, group: systemic
rat [2] = conditions: Subchronic oral toxicity in rodents, fischer, Gavage/Intubation, dose end: 13 week, group: systemic
mouse [3] = conditions: Subchronic oral toxicity in rodents, b6c3f1, Gavage/Intubation, dose end: 13 week, group: systemic
rat [4] = conditions: Prenatal developmental toxicity study, sprague dawley, Oral, Gavage/Intubation, dose end: 17 GD, group: maternal
rat [5] = conditions: Fertility (Segment I), sprague dawley, Oral, Gavage/Intubation, dose end: 7 GD
rabbit = conditions: Prenatal developmental toxicity study, new zealand white, Oral, Gavage/Intubation, dose end: 19 GD
mouse [6] = conditions: Subchronic oral toxicity in rodents, cd1, Gavage/Intubation, dose end: 3 month, group: systemic
mouse [7] = conditions: Sub-acute repeat dose toxicity, cd1, Oral, Gavage/Intubation, dose end: 1 month, group: systemic
dog [8] = conditions: Sub-acute repeat dose toxicity, beagle, Oral, Capsule, dose end: 1 month, group: systemic
dog [9] = conditions: Subchronic oral toxicity in nonrodent, beagle, Capsule, dose end: 3 month, group: systemic, systemic / clinical chemistry / alanine aminotransferase (alt/sgpt) / alanine aminotransferase (alt/sgpt) + systemic / clinical chemistry / …
rat [10] = conditions: Sub-acute repeat dose toxicity, sprague dawley, Oral, Gavage/Intubation, dose end: 1 month
rat [11] = conditions: Prenatal developmental toxicity study, sprague dawley, Oral, Gavage/Intubation, dose end: 17 GD
rat [12] = conditions: Fertility (Segment I), sprague dawley, Oral, Gavage/Intubation, dose end: 7 GD, group: parental
rat [13] = conditions: Sub-acute repeat dose toxicity; sprague dawley; Oral; Gavage/Intubation; dose end: 1 month; group: systemic; systemic / hematology / blood clotting / blood clotting - prothrombin time + systemic / hematology / platelet / platelet + systemic / organ …
rat [14] = conditions: Chronic toxicity; sprague dawley; Oral; Gavage/Intubation; dose end: 6 month; group: systemic; systemic / clinical chemistry / chloride / chloride + systemic / clinical chemistry / sodium / sodium + systemic / hematology / hematocrit (…
[15] = systemic / pathology microscopic / liver / cytologic alterations + systemic / pathology microscopic / liver / hyperplasia
[16] = systemic / pathology microscopic / liver / cytologic alterations + systemic / pathology microscopic / liver / hyperplasia + systemic / …
[17] = systemic / in life observation / body weight / body weight + systemic / in life observation / clinical signs / lethargy + systemic / in life…
[18] = systemic / in life observation / body weight / body weight
[19] = systemic / in life observation / body weight / body weight + systemic / in life observation / clinical signs / altered breathing rate + …
[20] = systemic / in life observation / body weight / body weight gain + systemic / in life observation / food consumption / food consumption
[21] = systemic / in life observation / body weight / body weight gain + systemic / in life observation / food consumption / food consumption + …
[22] = group: maternal, reproductive / reproductive performance / implantations / implantations + reproductive / reproductive performance / preimplantation loss / …
[23] = group: parental, systemic / in life observation / body weight / body weight gain
[24] = group: parental, systemic / in life observation / body weight / body weight gain + systemic / in life observation / clinical signs / body surface staining + …
[25] = group: developmental, systemic / in life observation / body weight / fetal weight
[26] = group: maternal, reproductive / reproductive performance / postimplantation loss / postimplantation loss + reproductive / reproductive performance / …
[27] = group: maternal, systemic / in life observation / clinical signs / defecation
[28] = systemic / clinical chemistry / cholesterol / cholesterol + systemic / clinical chemistry / bilirubin / total bilirubin + systemic / organ …
[29] = systemic / organ weight / liver / absolute + systemic / organ weight / liver / relative to body weight + systemic / organ weight / spleen / …
[30] = systemic / in life observation / body weight / body weight gain + systemic / in life observation / clinical signs / drooping eyelids (ptosis…
[31] = systemic / in life observation / body weight / body weight gain + systemic / in life observation / clinical signs / piloerection + systemic…
[32] = systemic / clinical chemistry / alkaline phosphatase (alp/alk) / alkaline phosphatase (alp/alk) + systemic / clinical chemistry / …
[33] = systemic / clinical chemistry / lipids / phospholipids + systemic / pathology gross / liver / [other] + systemic / clinical chemistry / …
[34] = group: maternal, reproductive / reproductive performance / estrous cycle / abnormal
[35] = group: systemic, systemic / clinical chemistry / cholesterol / cholesterol + systemic / clinical chemistry / globulins / globulins + systemic / clinical …
[36] = group: systemic, systemic / urinalysis / specific gravity/osmolality / specific gravity/osmolality + systemic / urinalysis / volume / volume
[37] = group: maternal, reproductive / reproductive performance / preimplantation loss / preimplantation loss + systemic / in life observation / body weight / body …
[38] = group: maternal, systemic / in life observation / body weight / body weight gain + systemic / in life observation / clinical signs / piloerection + systemic…
[39] = systemic / in life observation / clinical signs / body surface staining

## COC(N)=O [Methyl carbamate]
Rat [1]; [15]
  LOAEL: 100 mg/kg/day
  NOAEL: < 100 mg/kg/day
Rat [1]; [16]
  LEL: 100 mg/kg/day
  NEL: < 100 mg/kg/day
Rat [2]; [17]
  LOAEL: > 800 mg/kg/day
  NEL: 200 mg/kg/day
  NOAEL: ≥ 800 mg/kg/day
Rat [2]; systemic / in life observation / body weight / body weight + systemic / in life observation / clinical signs / lethargy + systemic / organ …
  LEL: 400 mg/kg/day
Mouse [3]; [18]
  LEL: 125 mg/kg/day
  NEL: < 125 mg/kg/day
Mouse [3]; [19]
  LOAEL: > 1500 mg/kg/day
  NOAEL: ≥ 1500 mg/kg/day

## COc1ccc(S(=O)(=O)N2C(=O)[C@@](c3ccccc3OC)(N3C[C@H](O)C[C@H]3C(=O)N(C)C)c3cc(Cl)ccc32)c(OC)c1 [Nelivaptan]
Rat [4]; [20]
  LEL: 150 mg/kg/day
  NEL: < 150 mg/kg/day
Rat [4]; [21]
  LOAEL: > 750 mg/kg/day
  NOAEL: ≥ 750 mg/kg/day
Rat [5]; [22]
  LEL: 750 mg/kg/day
  LOAEL: 750 mg/kg/day
  NEL: 600 mg/kg/day
  NOAEL: 600 mg/kg/day
Rat [5]; [23]
  LEL: 100 mg/kg/day
  NEL: < 100 mg/kg/day
Rat [5]; [24]
  LOAEL: 750 mg/kg/day
  NOAEL: 600 mg/kg/day
rabbit; [25]
  LEL: 2000 mg/kg/day
  LOAEL: > 2000 mg/kg/day
  NEL: 1000 mg/kg/day
  NOAEL: ≥ 2000 mg/kg/day
rabbit; [26]
  LOAEL: 1000 mg/kg/day
  NOAEL: 500 mg/kg/day
rabbit; [27]
  LEL: 250 mg/kg/day
  NEL: < 250 mg/kg/day
Mouse [6]; [28]
  LOAEL: 1000 mg/kg/day
  NOAEL: 500 mg/kg/day
Mouse [6]; [29]
  LEL: 500 mg/kg/day
  NEL: < 500 mg/kg/day
Mouse [7]; [30]
  LOAEL: > 4000 mg/kg/day
  NOAEL: ≥ 4000 mg/kg/day
Mouse [7]; [31]
  LEL: 1000 mg/kg/day
  NEL: < 1000 mg/kg/day
Dog [8]; [32]
  LOAEL: 200 mg/kg/day
  NOAEL: 50 mg/kg/day
Dog [8]; [33]
  LEL: 50 mg/kg/day
  NEL: < 50 mg/kg/day
Dog [9]
  LEL: 100 mg/kg/day
  LOAEL: 100 mg/kg/day
  NEL: 25 mg/kg/day
  NOAEL: 25 mg/kg/day
Rat [10]; [34]
  LEL: 800 mg/kg/day
  LOAEL: > 800 mg/kg/day
  NEL: 200 mg/kg/day
  NOAEL: ≥ 800 mg/kg/day
Rat [10]; [35]
  LOAEL: 200 mg/kg/day
  NOAEL: 50 mg/kg/day
Rat [10]; [36]
  LEL: 50 mg/kg/day
  NEL: < 50 mg/kg/day
Rat [11]; [25]
  LEL: 750 mg/kg/day
  LOAEL: 750 mg/kg/day
  NEL: 300 mg/kg/day
  NOAEL: 300 mg/kg/day
Rat [11]; [37]
  LOAEL: > 1500 mg/kg/day
  NOAEL: ≥ 1500 mg/kg/day
Rat [11]; [38]
  LEL: 300 mg/kg/day
  NEL: < 300 mg/kg/day
Rat [12]; [20]
  LOAEL: 750 mg/kg/day
Rat [12]; [21]
  NOAEL: 450 mg/kg/day
Rat [12]; [39]
  LEL: 150 mg/kg/day
  NEL: < 150 mg/kg/day
Rat [13]
  LEL: 25 mg/kg/day
  LOAEL: > 200 mg/kg/day
  NEL: < 25 mg/kg/day
  NOAEL: ≥ 200 mg/kg/day
Rat [14]
  LEL: 25 mg/kg/day
  LOAEL: 25 mg/kg/day
  NEL: < 25 mg/kg/day
  NOAEL: < 25 mg/kg/day
